Assay results: patent publication US4160829A, “Antibacterial 1,2,4-oxadiazolylacetamido cephalosporins” (Gist-Brocades N.V., priority 1972, dated 1979)
Values after ≈ are worked out from the molar mass of the structure shown. Where two headings read alike, the source gives them in different places.

What was measured:
Prot.morg. 2241 = assay: agar serial dilution test; assay type: cell-based; conditions: 24 h, agar serial dilution, 24 hours, 37° C.; read-out: minimal inhibitory concentration (MIC)
Haem.infl. A 1030 = assay: micro serial dilution test; assay type: cell-based; conditions: 18 h, micro serial dilution (in brackets), about 18 hours, 30° C. or 37° C.; read-out: minimal inhibitory concentration (MIC)
Staph.aureus A 2001 [1] = assay: agar serial dilution test; assay type: cell-based, Staphylococcus aureus; conditions: Staphylococcus aureus, A2001, 24 h, agar serial dilution, 24 hours, 37° C.; read-out: minimal inhibitory concentration (MIC)
Staph.aureus A 2000 [2] = assay: micro serial dilution test; assay type: cell-based, Staphylococcus aureus; conditions: Staphylococcus aureus, A2000, 18 h, micro serial dilution (in brackets), about 18 hours, 30° C. or 37° C.; read-out: minimal inhibitory concentration (MIC)
Shig.equir. T 3 = assay: agar serial dilution test; assay type: cell-based; conditions: 24 h, 37° C., read-out: minimal inhibitory concentration (MIC)
Staph.aureus A 2000 [3] = assay: agar serial dilution test; assay type: cell-based, Staphylococcus aureus; conditions: Staphylococcus aureus, A2000, 24 h, agar serial dilution, 24 hours, 37° C.; read-out: minimal inhibitory concentration (MIC)
Salm.dubl. P 43 = assay: agar serial dilution test; assay type: cell-based, Salmonella dublin; conditions: Salmonella enterica; agar serial dilution, 24 hours, 37° C.; read-out: minimal inhibitory concentration (MIC)
Dipl.pneum. L 54 = assay: agar serial dilution test; assay type: cell-based, Diplococcus pneumoniae; conditions: Streptococcus pneumoniae; agar serial dilution, 24 hours, 37° C.; read-out: minimal inhibitory concentration (MIC)
Salm.typh. R 127 = assay: agar serial dilution test; assay type: cell-based; conditions: 24 h, 37° C., read-out: minimal inhibitory concentration (MIC)
Pseud.aerug. 2396 = assay: agar serial dilution test; assay type: cell-based; conditions: agar serial dilution, 24 hours, 37° C.; read-out: minimal inhibitory concentration (MIC)
Kleb.pneum. A 809 = assay: agar serial dilution test; assay type: cell-based, Klebsiella pneumoniae; conditions: Klebsiella pneumoniae; agar serial dilution, 24 hours, 37° C.; read-out: minimal inhibitory concentration (MIC)
Pseud.aerug. H 10 = assay: agar serial dilution test; assay type: cell-based; conditions: agar serial dilution, 24 hours, 37° C.; read-out: minimal inhibitory concentration (MIC)
Bac.Subt.ATCC 6633 = assay: agar serial dilution test; assay type: cell-based, Bacillus subtilis; conditions: Bacillus subtilis, ATCC6633, 24 h, agar serial dilution, 24 hours, 37° C.; read-out: minimal inhibitory concentration (MIC)
Strep. faec. L 80 = assay: agar serial dilution test; assay type: cell-based, Streptococcus faecalis; conditions: Enterococcus faecalis; agar serial dilution, 24 hours, 37° C.; read-out: minimal inhibitory concentration (MIC)
Prot.rettg. A 821 = assay: agar serial dilution test; assay type: cell-based, Proteus rettgeri; conditions: Providencia rettgeri, 24 h, read-out: minimal inhibitory concentration (MIC)
Esch.coli U 20 = assay: agar serial dilution test; assay type: cell-based, Escherichia coli; conditions: Escherichia coli
Strep.haem. A 266 [4] = assay: agar serial dilution test; assay type: cell-based, Streptococcus haemolyticus; conditions: Streptococcus; agar serial dilution, 24 hours, 37° C.; read-out: minimal inhibitory concentration (MIC)
Staph.aureus A 355 [5] = assay: agar serial dilution test; conditions: Staphylococcus aureus, A355, 24 h, read-out: minimal inhibitory concentration (MIC), agar serial dilution, 24 hours, 37° C.; penicillinase-producing strain
Prot.mirab. L 93 = assay: agar serial dilution test; assay type: cell-based, Proteus mirabilis; conditions: Proteus mirabilis; agar serial dilution, 24 hours, 37° C.; read-out: minimal inhibitory concentration (MIC)
Staph.aureus A 321 = assay: agar serial dilution test; assay type: cell-based, Staphylococcus aureus; conditions: Staphylococcus aureus, A321, 24 h, agar serial dilution, 24 hours, 37° C.; read-out: minimal inhibitory concentration (MIC)
[6] = test system: Pseud.aerug. Wyeth A 1058; assay: agar serial dilution test; assay type: cell-based; conditions: agar serial dilution, 24 hours, 37° C.; read-out: minimal inhibitory concentration (MIC)
Prot.mirab. H 3 = assay: agar serial dilution test; assay type: cell-based, Proteus mirabilis; conditions: Proteus mirabilis; agar serial dilution, 24 hours, 37° C.; read-out: minimal inhibitory concentration (MIC)
Past.multo. A 723 = assay: agar serial dilution test; assay type: cell-based, Pasteurella multocida; conditions: Pasteurella multocida; agar serial dilution, 24 hours, 37° C.; read-out: minimal inhibitory concentration (MIC)
Staph.aureus A 2001 [7] = assay: micro serial dilution test; assay type: cell-based, Staphylococcus aureus; conditions: Staphylococcus aureus, A2001, 18 h, micro serial dilution (in brackets), about 18 hours, 30° C. or 37° C.; read-out: minimal inhibitory concentration (MIC)
Staph.aureus A 355 [8] = assay: micro serial dilution test; assay type: cell-based, Staphylococcus aureus; conditions: Staphylococcus aureus, A355; micro serial dilution (in brackets), about 18 hours, 30° C. or 37° C.; penicillinase-producing strain; read-out: minimal inhibitory concentration (MIC)
Bruc.melit. A 488 = assay: microbe, parasite or virus in culture; assay type: cell-based; conditions: Brucella melitensis, 24 h, read-out: minimal inhibitory concentration (MIC)
Prot.mirab. A 1200 = assay: agar serial dilution test; assay type: cell-based, Proteus mirabilis; conditions: Proteus mirabilis, 24 h, agar serial dilution, 24 hours, 37° C.; read-out: minimal inhibitory concentration (MIC)
Strep.haem. A 266 [9] = assay: micro serial dilution test; assay type: cell-based, Streptococcus haemolyticus; conditions: Streptococcus; micro serial dilution (in brackets), about 18 hours, 30° C. or 37° C.; read-out: minimal inhibitory concentration (MIC)
[10] = blood and urine contents after intramuscular administration in rabbits; assay type: in vivo, rabbits "Nieuw Zeelander"; conditions: rabbit, im, intramuscular 50 mg/kg
Method: (d) the blood and urine contents of the above-indicated compound G and of monosodium 7-[(3-carboxymethyl-1,2,4-oxadiazol-5-yl)acetamido]-3-acetoxymethyl-3-cephem-4-carboxylate (as prepared in example 35) were determined after intramuscular administration of these compounds in an aqueous solution in rabbits, as listed below:
test animals: rabbits "Nieuw Zeelander"
Each testgroup consisted of 3 rabbits.
Vehiculum: Physiol. saline solution
Bloodsamples were taken after 1/4--1/2--1--2--4 hours Urinesamples were taken after 1--3--6--24--27 hours (in practice only the secreted amounts after 6 and 24 hours were used).
Testorganisms: Bacillus subtilis ATCC 6633 and Bacillus callidolactis E 16.
The contents of the compounds in the samples were determined microbiologically.
(Only microbiologically detected concentrations, i.e. anti-bacterially active concentrations only have been indicated and determined in relation to the original administered compound).

For `Cc1nc(CC(=O)N[C@@H]2C(=O)N3C(C(=O)O)=C(CN=[N+]=[N-])C[S+]([O-])[C@H]23)no1` (stereo partly drawn) [Example 19, R-sulfoxide of 7-[(5-methyl-1,2,4-oxadiazol-3-yl)-acetamido]-3-azidomethyl-3-cephem-4-carboxylic acid], the MIC (Prot.morg. 2241) was > 100 µg/mL, the MIC (Haem.infl. A 1030) was 23 µg/mL (≈ 58.2 µM) and the MIC (Staph.aureus A 2001 [1]) was 6 µg/mL (≈ 15.2 µM). It also gave an MIC (Staph.aureus A 2000 [2]) of 5 µg/mL (≈ 12.6 µM), an MIC (Shig.equir. T 3) of 6 µg/mL (≈ 15.2 µM) and an MIC (Staph.aureus A 2000 [3]) of 6 µg/mL (≈ 15.2 µM). The MIC (Salm.dubl. P 43) was 25 µg/mL (≈ 63.2 µM), the MIC (Dipl.pneum. L 54) was 3 µg/mL (≈ 7.59 µM) and the MIC (Salm.typh. R 127) was 100 µg/mL (≈ 253 µM). For the same compound, the MIC (Pseud.aerug. 2396) was > 100 µg/mL, the MIC (Kleb.pneum. A 809) was 50 µg/mL (≈ 126 µM) and the MIC (Pseud.aerug. H 10) was > 100 µg/mL. The MIC (Bac.Subt.ATCC 6633) was 0.5 µg/mL (≈ 1.26 µM), the MIC (Strep. faec. L 80) was > 100 µg/mL and the MIC (Prot.rettg. A 821; agar serial dilution, 24 hours, 37° C.) was 6 µg/mL (≈ 15.2 µM). It also gave an MIC (Esch.coli U 20; U20, agar serial dilution, 24 hours, 37° C., read-out: minimal inhibitory concentration (MIC)) of 100 µg/mL (≈ 253 µM), an MIC (Strep.haem. A 266 [4]) of 0.5 µg/mL (≈ 1.26 µM) and an MIC (Staph.aureus A 355 [5]) of 12.5 µg/mL (≈ 31.6 µM). The MIC (Prot.mirab. L 93) was 25 µg/mL (≈ 63.2 µM), the MIC (Staph.aureus A 321) was 6 µg/mL (≈ 15.2 µM) and the MIC [6] was > 100 µg/mL. The MIC (Prot.mirab. H 3) was 50 µg/mL (≈ 126 µM), the MIC (Past.multo. A 723) was 25 µg/mL (≈ 63.2 µM) and the MIC (Staph.aureus A 2001 [7]) was 6 µg/mL (≈ 15.2 µM). The MIC (Staph.aureus A 355 [8]) was 15 µg/mL (≈ 37.9 µM), the MIC (Bruc.melit. A 488) was 6 µg/mL (≈ 15.2 µM) and the MIC (Prot.mirab. A 1200) was > 100 µg/mL.
With `C=CCNC(=O)Cc1nc(CC(=O)N[C@@H]2C(=O)N3C(C(=O)O)=C(COC(C)=O)CS[C@H]23)no1` [Example 31, 7-[5-(N-propen-3-yl)-carbamoylmethyl-1,2,4-oxadiazol-3-yl-acetamido]-cephalosporanic acid] the MIC (Prot.morg. 2241) was > 100 µg/mL, the MIC (Haem.infl. A 1030) was ≥ 125 µg/mL and the MIC (Staph.aureus A 2001 [1]) was 3 µg/mL (≈ 6.26 µM). It also gave an MIC (Staph.aureus A 2000 [2]) of 1.2 µg/mL (≈ 2.5 µM), an MIC (Shig.equir. T 3) of 12.5 µg/mL (≈ 26.1 µM) and an MIC (Staph.aureus A 2000 [3]) of 3 µg/mL (≈ 6.26 µM). The MIC (Salm.dubl. P 43) was 6 µg/mL (≈ 12.5 µM), the MIC (Dipl.pneum. L 54) was 1.5 µg/mL (≈ 3.13 µM) and the MIC (Salm.typh. R 127) was 12.5 µg/mL (≈ 26.1 µM). The MIC (Pseud.aerug. 2396) was > 100 µg/mL, the MIC (Kleb.pneum. A 809) was 6 µg/mL (≈ 12.5 µM) and the MIC (Pseud.aerug. H 10) was > 100 µg/mL. The MIC (Bac.Subt.ATCC 6633) was 1 µg/mL (≈ 2.09 µM), the MIC (Strep. faec. L 80) was 25 µg/mL (≈ 52.1 µM) and the MIC (Prot.rettg. A 821) was 12.5 µg/mL (≈ 26.1 µM). It also gave an MIC (Strep.haem. A 266 [9]) of 2.5 µg/mL (≈ 5.21 µM), an MIC (Esch.coli U 20; U20, 24 h, read-out: minimal inhibitory concentration (MIC), agar serial dilution, 24 hours, 37° C.) of 12.5 µg/mL (≈ 26.1 µM) and an MIC (Staph.aureus A 355 [5]) of 6 µg/mL (≈ 12.5 µM). For the same compound, the MIC (Prot.mirab. L 93) was 6 µg/mL (≈ 12.5 µM), the MIC (Staph.aureus A 321) was 1.5 µg/mL (≈ 3.13 µM) and the MIC [6] was > 100 µg/mL. The MIC (Prot.mirab. H 3) was 25 µg/mL (≈ 52.1 µM), the MIC (Past.multo. A 723) was 1.5 µg/mL (≈ 3.13 µM) and the MIC (Staph.aureus A 2001 [7]) was 1.2 µg/mL (≈ 2.5 µM). For the same compound, the MIC (Staph.aureus A 355 [8]) was 1.9 µg/mL (≈ 3.96 µM) and the MIC (Prot.mirab. A 1200) was 25 µg/mL (≈ 52.1 µM).
`CC(=O)OCC1=C(C(=O)O)N2C(=O)[C@@H](NC(=O)Cc3nc(CC(=O)O)no3)[C@H]2SC1` [Example 35, Monosodium 7-[3-carboxymethyl-1,2,4-oxadiazol-5-yl-acetamido]-cephalosporanate] showed a concentration at 0.5 h ([10]; serum, after 1/2 hr, read-out: Serumlevel) of 93.7 µg/mL, a concentration at 0.25 h ([10]; serum, after 1/4 hr, read-out: Serumlevel) of 119 µg/mL and a concentration at 1 h ([10]; serum, after 1 hr, read-out: Serumlevel) of 56 µg/mL. It also gave a concentration at 2 h ([10]; serum, after 2 hr, read-out: Serumlevel) of 15.4 µg/mL, a concentration at 4 h ([10]; serum, after 4 hr, read-out: Serumlevel) of 1.8 µg/mL and a dose excreted at 6 h ([10]; urine, after 6 hr, read-out: Secretion of compound in urine in % of the administered dose) of 35.9%. For the same compound, the dose excreted at 24 h ([10]; urine, after 24 hr, read-out: Secretion of compound in urine in % of the administered dose) was 51.4%.
